target: T1, human APJ receptor (Homo sapiens, UniProt P35414); experiment: Intracellular cAMP accumulation assay (APJ hcAMP, HTRF); assay type: cell-based; details: HEK293 cells stably expressing human APJ receptor; inhibition of forskolin-mediated cAMP production; read-out: APJ cAMP Potency range
T1 construct: expressed in transfected cells; host or cells: HEK293
T1 sequence (P35414 1-380): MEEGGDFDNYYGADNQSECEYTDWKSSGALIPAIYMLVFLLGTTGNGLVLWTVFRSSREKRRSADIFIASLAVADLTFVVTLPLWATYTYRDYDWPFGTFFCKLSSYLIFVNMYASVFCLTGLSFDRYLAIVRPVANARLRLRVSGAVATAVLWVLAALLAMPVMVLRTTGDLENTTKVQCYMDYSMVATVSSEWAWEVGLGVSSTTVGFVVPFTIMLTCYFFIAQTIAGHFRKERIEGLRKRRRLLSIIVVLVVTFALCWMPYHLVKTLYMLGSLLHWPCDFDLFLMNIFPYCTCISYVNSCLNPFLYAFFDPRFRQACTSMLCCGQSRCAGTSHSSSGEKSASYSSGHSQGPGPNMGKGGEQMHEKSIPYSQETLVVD
Method in brief: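 HEK293 cells stably expressing the receptor (5,000/well) treated with compound plus […] and 2 μM forskolin for 30 min at room temperature; cAMP by HTRF against a cAMP standard curve. EC50 from variable-slope sigmoidal fit; Ymax as % of (Pyr1)apelin-13 inhibition.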

Row | Compound | EC50 [nM]
1 | CCc1cccc(CC)c1-n1c(-c2ccn(C(C)C)n2)nc(=O)c(Cc2ccc(-c3cccn(C)c3=O)c(F)c2)c1O [Example 87, 1-(2,6-diethylphenyl)-5-{[3-fluoro-4-(1-methyl-2-oxo-1,2-dihydropyridin-3-yl)phenyl]methyl}-6-hydroxy-2-[1-(propan-2-yl)-1H-pyrazol-3-yl]-1,4-dihydropyrimidin-4-one] | 0.01 to 10
2 | CCc1cccc(CC)c1-n1c(-c2ccn(C)n2)nc(=O)c(Cc2ccc(-c3cccn(C)c3=O)cc2F)c1O [Example 88, 1-(2,6-diethylphenyl)-5-{[2-fluoro-4-(1-methyl-2-oxo-1,2-dihydropyridin-3-yl)phenyl]methyl}-6-hydroxy-2-(1-methyl-1H-pyrazol-3-yl)-1,4-dihydropyrimidin-4-one] | 0.01 to 10
3 | CCc1cccc(CC)c1-n1c(-c2ccn(C)n2)nc(=O)c(Cc2ccc(-c3ccc(F)cc3C(N)=O)cc2F)c1O [Example 89, 4′-{[1-(2,6-diethylphenyl)-6-hydroxy-2-(1-methyl-1H-pyrazol-3-yl)-4-oxo-1,4-dihydropyrimidin-5-yl]methyl}-3′,4-difluoro-[1,1′-biphenyl]-2-carboxamide] | 0.01 to 10
4 | CCc1cccc(CC)c1-n1c(-c2ccn(CC(C)C)n2)nc(=O)c(Cc2ccc(-c3cccn(C)c3=O)c(F)c2)c1O [Example 90, 1-(2,6-diethylphenyl)-5-{[3-fluoro-4-(1-methyl-2-oxo-1,2-dihydropyridin-3-yl)phenyl]methyl}-6-hydroxy-2-[1-(2-methylpropyl)-1H-pyrazol-3-yl]-1,4-dihydropyrimidin-4-one] | 100 to 300
5 | CCc1cccc(CC)c1-n1c(-c2ccn(CC(C)C)n2)nc(=O)c(Cc2ccc(-c3ccnc(F)c3C)c(F)c2)c1O [Example 91, 1-(2,6-diethylphenyl)-5-{[3-fluoro-4-(2-fluoro-3-methylpyridin-4-yl)phenyl]methyl}-6-hydroxy-2-[1-(2-methylpropyl)-1H-pyrazol-3-yl]-1,4-dihydropyrimidin-4-one] | 100 to 300
6 | CCc1cccc(CC)c1-n1c(-c2ccn(CC(C)C)n2)nc(=O)c(Cc2ccc(-c3ccc(F)cc3C(N)=O)c(F)c2)c1O [Example 92, 4′-{[1-(2,6-diethylphenyl)-6-hydroxy-2-[1-(2-methylpropyl)-1H-pyrazol-3-yl]-4-oxo-1,4-dihydropyrimidin-5-yl]methyl}-2′,4-difluoro-[1,1′-biphenyl]-2-carboxamide] | 10 to 100
7 | CCc1cccc(CC)c1-n1c(-c2ccn(C3CC3)n2)nc(=O)c(Cc2ccc(-c3cccn(C)c3=O)c(F)c2)c1O [Example 93, 2-(1-cyclopropyl-1H-pyrazol-3-yl)-1-(2,6-diethylphenyl)-5-{[3-fluoro-4-(1-methyl-2-oxo-1,2-dihydropyridin-3-yl)phenyl]methyl}-6-hydroxy-1,4-dihydropyrimidin-4-one] | 0.01 to 10
8 | CCc1cccc(CC)c1-n1c(-c2ccn(C3CC3)n2)nc(=O)c(Cc2ccc(-c3ccc(F)cc3C(N)=O)c(F)c2)c1O [Example 94, 4′-{[2-(1-cyclopropyl-1H-pyrazol-3-yl)-1-(2,6-diethylphenyl)-6-hydroxy-4-oxo-1,4-dihydropyrimidin-5-yl]methyl}-2′,4-difluoro-[1,1′-biphenyl]-2-carboxamide] | 0.01 to 10
9 | CCCCc1nc(=O)c(Cc2ccc(-c3cccnc3C)cc2)c(O)n1[C@@H](CC)c1cccc(C#N)c1 [Example 96, 3-[(1S)-1-(2-butyl-6-hydroxy-5-{[4-(2-methylpyridin-3-yl)phenyl]methyl}-4-oxo-1,4-dihydropyrimidin-1-yl)propyl]benzonitrile] | 0.01 to 10
10 | CCCCc1nc(=O)c(Cc2ccc(-c3ccc(F)nc3)cc2)c(O)n1[C@@H](CC)c1cccc(C#N)c1 [Example 97, 3-[(1S)-1-(2-butyl-5-{[4-(6-fluoropyridin-3-yl)phenyl]methyl}-6-hydroxy-4-oxo-1,4-dihydropyrimidin-1-yl)propyl]benzonitrile] | 0.01 to 10
11 | CCCCc1nc(=O)c(Cc2ccc(-c3ccncc3C)cc2)c(O)n1[C@@H](CC)c1cccc(C#N)c1 [Example 98, 3-[(1S)-1-(2-butyl-6-hydroxy-5-{[4-(3-methylpyridin-4-yl)phenyl]methyl}-4-oxo-1,4-dihydropyrimidin-1-yl)propyl]benzonitrile] | 0.01 to 10
12 | CCCCc1nc(=O)c(Cc2ccc(-c3ccnc(F)c3C)cc2)c(O)n1[C@@H](CC)c1cccc(C#N)c1 [Example 99, 3-[(1S)-1-(2-butyl-5-{[4-(2-fluoro-3-methylpyridin-4-yl)phenyl]methyl}-6-hydroxy-4-oxo-1,4-dihydropyrimidin-1-yl)propyl]benzonitrile] | 0.01 to 10
13 | CCCCc1nc(=O)c(Cc2ccc(-n3cc(Cl)ccc3=O)cc2)c(O)n1[C@@H](CC)c1cccc(C#N)c1 [Example 100, 3-[(1S)-1-(2-butyl-5-{[4-(5-chloro-2-oxo-1,2-dihydropyridin-1-yl)phenyl]methyl}-6-hydroxy-4-oxo-1-4-dihydropyrimidin-1-yl)propyl]benzonitrile] | 0.01 to 10

Further lines, results first:

Row | EC50 [nM] | Compound
14 | 0.01 to 10 | CCc1cccc(CC)c1-n1c(-c2ccn(CC)n2)nc(=O)c(Cc2ccc(-c3ccncc3C)c(F)c2)c1O [Example 76, 1-(2,6-diethylphenyl)-2-(1-ethyl-1H-pyrazol-3-yl)-5-{[3-fluoro-4-(3-methylpyridin-4-yl)phenyl]methyl}-6-hydroxy-1,4-dihydropyrimidin-4-one]
15 | 0.01 to 10 | CCc1cccc(CC)c1-n1c(-c2ccn(CC)n2)nc(=O)c(Cc2ccc(-c3ccnc(F)c3C)c(F)c2)c1O [Example 77, 1-(2,6-diethylphenyl)-2-(1-ethyl-1H-pyrazol-3-yl)-5-{[3-fluoro-4-(2-fluoro-3-methylpyridin-4-yl)phenyl]methyl}-6-hydroxy-1,4-dihydropyrimidin-4-one]
16 | 0.01 to 10 | CCc1cccc(CC)c1-n1c(-c2csc(C)n2)nc(=O)c(Cc2ccc(-c3ccnc(F)c3C)c(F)c2)c1O [Example 78, 1-(2,6-diethylphenyl)-5-{[3-fluoro-4-(2-fluoro-3-methylpyridin-4-yl)phenyl]methyl}-6-hydroxy-2-(2-methyl-1,3-thiazol-4-yl)-1,4-dihydropyrimidin-4-one]
17 | 0.01 to 10 | CCc1cccc(CC)c1-n1c(-c2nc(C)cs2)nc(=O)c(Cc2ccc(-c3ccc(F)nc3C)c(F)c2)c1O [Example 79, 1-(2,6-diethylphenyl)-5-{[3-fluoro-4-(6-fluoro-2-methylpyridin-3-yl)phenyl]methyl}-6-hydroxy-2-(4-methyl-1,3-thiazol-2-yl)-1,4-dihydropyrimidin-4-one]
18 | 0.01 to 10 | CCc1cccc(CC)c1-n1c(-c2ccn(CC)n2)nc(=O)c(Cc2ccc(-c3ccc(F)nc3C)c(F)c2)c1O [Example 80, 1-(2,6-diethylphenyl)-2-(1-ethyl-1H-pyrazol-3-yl)-5-{[3-fluoro-4-(6-fluoro-2-methylpyridin-3-yl)phenyl]methyl}-6-hydroxy-1,4-dihydropyrimidin-4-one]
19 | 0.01 to 10 | CCc1cccc(CC)c1-n1c(-c2nc(C)cs2)nc(=O)c(Cc2ccc(-c3ccc(F)cc3C(N)=O)c(F)c2)c1O [Example 82, 4′-{[1-(2,6-diethylphenyl)-6-hydroxy-2-(4-methyl-1,3-thiazol-2-yl)-4-oxo-1,4-dihydropyrimidin-5-yl]methyl}-2′,4-difluoro-[1,1′-biphenyl]-2-carboxamide]
20 | 0.01 to 10 | CCc1cccc(CC)c1-n1c(-c2nc(C)cs2)nc(=O)c(Cc2ccc(-c3cccn(C)c3=O)c(F)c2)c1O [Example 83, 1-(2,6-diethylphenyl)-5-{[3-fluoro-4-(1-methyl-2-oxo-1,2-dihydropyridin-3-yl)phenyl]methyl}-6-hydroxy-2-(4-methyl-1,3-thiazol-2-yl)-1,4-dihydropyrimidin-4-one]
21 | 0.01 to 10 | CCc1cccc(CC)c1-n1c(-c2ccn(C(C)C)n2)nc(=O)c(Cc2ccc(-c3ccc(F)cc3C(N)=O)c(F)c2)c1O [Example 84, 4′-{[1-(2,6-diethylphenyl)-6-hydroxy-4-oxo-2-[1-(propan-2-yl)-1H-pyrazol-3-yl]-1,4-dihydropyrimidin-5-yl]methyl}-2′,4-difluoro-[1,1′-biphenyl]-2-carboxamide]
22 | 0.01 to 10 | CCc1cccc(CC)c1-n1c(-c2ccn(C(C)C)n2)nc(=O)c(Cc2ccc(-c3ccnc(F)c3C)c(F)c2)c1O [Example 85, 1-(2,6-diethylphenyl)-5-{[3-fluoro-4-(2-fluoro-3-methylpyridin-4-yl)phenyl]methyl}-6-hydroxy-2-[1-(propan-2-yl)-1H-pyrazol-3-yl]-1,4-dihydropyrimidin-4-one]
23 | 0.01 to 10 | CCc1cccc(CC)c1-n1c(-c2ccn(C)n2)nc(=O)c(Cc2ccc(-c3ccnc(F)c3C)cc2F)c1O [Example 86, 1-(2,6-diethylphenyl)-5-{[2-fluoro-4-(2-fluoro-3-methylpyridin-4-yl)phenyl]methyl}-6-hydroxy-2-(1-methyl-1H-pyrazol-3-yl)-1,4-dihydropyrimidin-4-one]

same assay, conditions: HEK293 cells stably expressing human APJ receptor; inhibition of forskolin-mediated cAMP production; read-out: Human APJ cAMP EC50 potency range

Row | EC50 [nM] | Compound
24 | 0.01 to 10 | CCCCc1nc(=O)c(Cc2ccc(-c3ccc(F)nc3C)cc2)c(O)n1[C@@H](CC)c1cccc(C#N)c1 [Example 95, (S)-3-(1-(2-butyl-5-(4-(6-fluoro-2-methylpyridin-3-yl)benzyl)-6-hydroxy-4-oxopyrimidin-1(4H)-yl)propyl)benzonitrile]
